# Entries after “also recorded” stand apart in the source; their conditions may differ.
# Tests used:
# [1] = molecular target: B. cereus nSMase (Bacillus cereus, UniProt P11889); test: Inhibition of bacterial nSMase (not shown); format: biochemical
# [2] = system: rat primary hippocampal neurons; test: Hippocampal neuronal survival (Hoechst 33342); format: cell-based; conditions: for effect on TNF-α or IL-1β-induced neuron cell death (words): Hoechst 33342 staining
# Protocol: All animal procedures were approved by the Johns Hopkins University Animal Care and Use Committee. Primary hippocampal neurons were prepared from day 18 decapitated embryos of Sprague-Dawley rats following previously described methods. Cells were seeded on polyethyleneimine (PEI)-coated slides in 12-well plates and cultured between 14–21 days. […] After 18 h, cells were stained with 50 μg/ml Hoeschst 33342 for 20 min and then fixed with 4% paraformaldehyde for 30 min. The number of living and apoptotic cells was determined by fluorescence microscopy. A minimum of 500 cells were counted per treatment condition. Results were normalized to control untreated cells and were representative of at least two independent experiments conducted in triplicate. Statistical evaluation of the data was done by Student’s t-test.
# [3] = system: BCL6-expressing Burkitt lymphoma cell lines; design: method as in PMID 16618762; conditions: cited from earlier work
# [4] = system: rat primary cortical neurons; test: Lipid extraction and ceramide measurements (LC-MS/MS); format: cell-based; conditions: rat primary neurons, TNF-α
# Protocol: Primary cortical neurons were prepared from embryonic day 18 Sprague-Dawley rats following previously described methods. […] A crude lipid extract from cortical neurons was obtained using a modified Bligh and Dyer procedure. Ceramide C12:0 (Avanti Polar Lipids) was included as an internal standard. The organic layers were dried in a nitrogen evaporator (Organomation Associates Inc.) and stored at -80°C. Dried organic layers were resuspended in methanol just prior to analysis. The detection and quantitation of individual ceramide species was performed on a high-performance liquid chromatography (HPLC) coupled electrospray ionization triple quadrupole mass spectrometer (API3000, AB Sciex Inc.) using settings similar to those described in previous studies. Samples were handled by a CTC PAL autosampler (LEAP Technologies Inc.) and injected into an HPLC (PerkinElmer) equipped with a reverse phase C18 column (Phenomex). […] The eluted sample was injected into the electrospray ionization source and detection of each ceramide species was conducted by multiple reaction monitoring. Spectral analysis was conducted using MultiQuant (AB Sciex Inc.), individually validated and normalized to the internal standard. Final data for each ceramide species in counts per second was expressed as the ratio of analyte/internal standard.
# [5] = Solubility; format: physicochemical; conditions: cambinol compared to GW4869
# Sequence of B. cereus nSMase (P11889 28-333): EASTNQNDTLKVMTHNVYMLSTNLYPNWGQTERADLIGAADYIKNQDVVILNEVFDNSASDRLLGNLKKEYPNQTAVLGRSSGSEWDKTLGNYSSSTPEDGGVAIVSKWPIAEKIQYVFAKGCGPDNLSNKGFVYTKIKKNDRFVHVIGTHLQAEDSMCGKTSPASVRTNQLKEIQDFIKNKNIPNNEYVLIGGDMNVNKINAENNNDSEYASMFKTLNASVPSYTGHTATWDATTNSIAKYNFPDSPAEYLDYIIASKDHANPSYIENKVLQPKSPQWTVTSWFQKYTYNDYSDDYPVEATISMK
compound,measurement,setting,value
"O=c1[nH]c(=S)[nH]c(-c2ccccc2)c1Cc1c(O)ccc2ccccc12 [Cambinol, cambinol]",IC50,[1],5 µM
same,"neuron survival, Mean (normalized to control untreated cells)","[2]; 100 ng/ml IL1β 18 h, 0.1 µM compound",77.25
same,"neuron survival, Mean (normalized to control untreated cells)","[2]; 100 ng/ml IL1β 18 h, 0.3 µM compound",74.03
same,"neuron survival, Mean (normalized to control untreated cells)","[2]; 100 ng/ml IL1β 18 h, 1 µM compound",84.51
same,"neuron survival, Mean (normalized to control untreated cells)","[2]; 100 ng/ml IL1β 18 h, 3 µM compound",93.01
same,"neuron survival, Mean (normalized to control untreated cells)","[2]; 100 ng/ml IL1β 18 h, 10 µM compound",93.58
same,"neuron survival, Mean (normalized to control untreated cells)","[2]; 100 ng/ml IL1β 18 h, 25 µM compound",97.12
same,"neuron survival, Mean (normalized to control untreated cells)","[2]; 100 ng/ml TNFα 18 h, 0.1 µM compound",78.25
same,"neuron survival, Mean (normalized to control untreated cells)","[2]; 100 ng/ml TNFα 18 h, 0.3 µM compound",82.52
same,"neuron survival, Mean (normalized to control untreated cells)","[2]; 100 ng/ml TNFα 18 h, 1 µM compound",86.26
same,"neuron survival, Mean (normalized to control untreated cells)","[2]; 100 ng/ml TNFα 18 h, 3 µM compound",90.17
same,"neuron survival, Mean (normalized to control untreated cells)","[2]; 100 ng/ml TNFα 18 h, 10 µM compound",91.48
same,"neuron survival, Mean (normalized to control untreated cells)","[2]; 100 ng/ml TNFα 18 h, 25 µM compound",92.36
same,effect on TNF-α or IL-1β-induced neuron cell death (words),[2],decreased
same,effect on TNF-α or IL-1β-induced neuron cell death (words),[2]; listed as cambinol,prevent; also recorded: inhibited; also recorded: protected
same,"neuron survival, Mean (normalized to control untreated cells)","[2]; No IL1β, 25 µM compound",91.21
same,apoptosis,[3],induced apoptosis
same,effect on cytokine-induced increase of ceramide (words),[4],decreased
same,effect on cytokine-induced increase of ceramide (words),[4]; listed as cambinol,dose dependently block; also recorded: blocked
same,aqueous solubility,[5],significantly higher; also recorded: improved

# — article PMC4444023 (PLoS ONE, 2015)
